Experimental data published in article PMC11310889, “Ribosomal translation of fluorinated non-canonical amino acids for de novo biologically active fluorinated macrocyclic peptides” (Chemical Science, 2024).
*1 amine or outer side, *2 acyl side, *3 side chain or, on linkers, in order; H or OH if unused. Where a SMILES comes first, the peptide text is derived from it. Bridges are numbered along the chain shown (N, C = ends). [ ]: non-standard residue; d: D form. X1 = O=C(C[C@H](N[*:1])c1ccc(F)cc1)[*:2]; dPhe(4-F) = N[C@H](Cc1ccc(F)cc1)C(=O)O

Tests used:
[1] = system: T1, BAM complex; experiment: SPR binding kinetics to BAM complex; set-up: species or system E. coli; settings: Biacore T200, 25 °C, multi-cycle kinetics, 1:1 model; for ka for BAM complex: CM5 chip; for Kd: HBS-EP+ buffer pH 7.4 with 0.1% DMSO, BAM complex on CM5 chip (9500 RU)
T1 construct: made in house; host or cells: E. coli BL21(DE3), strain obtained from Xinmiao Fu, Fujian Normal University
Procedure: Expression and purification of the BAM complex
The E. coli BL21(DE3) cells containing all five Bam proteins (BamA, B, C, D, and E) was obtained from Xinmiao Fu of Fujian Normal University and used for expression and purification.
The BL21(DE3) cells plated onto LB-ampicillin agar plates and incubated overnight at 37 °C. A 20 mL culture incubated overnight at 37°C was prepared from a single colony in LB medium supplemented with 100 mg/L of ampicillin. The strain was inoculated into fresh LB liquid medium according to the inoculation ratio of 1:100 and incubated at 37 ℃ for about 4 hours until the OD600 reached about 1.0. The temperature of the incubator was set to 20 ℃ and then cultured for 1 hour, and 200 uM IPTG was added to induce overnight. First of all, the induced cells were collected by freezing centrifuge 3000 rpm for 30 min, and the collected cells were resuspended with Buffer 1 (20 mM Tris-HCl, pH 8.0, 150 mM NaCl), and then crushed low temperature and pressure with a high pressure crusher. The broken cells were centrifuged 1 hour at 4 °C for18000 rpm by high speed centrifuge. After centrifugation at 4 °C 18000 rpm for 1 hour, and the supernatant was discarded and the cell membrane was collected. The collected cell membranes were resuscitated with Buffer 2 (20 mM Tris-HCl, pH 8.0, 300 mM NaCl, 1% DDM) and then dissolved at 4 °C for 2 hours. After dissolving the membrane, the supernatant was collected by high speed centrifuge at 18,000 rpm. The 20 mM imidazole was added to the supernatant and incubated with a 2 mL Ni-NTA sefinoseTM resin column for 1 hour. After incubation, 10 column volumes were washed with Buffer 3 (20 mM Tris-HCl, pH 8.0, 300 mM NaCl, 0.025%DDM) containing 30 mM and 50 mM imidazole respectively. Then, the protein was eluted with Buffer 3 containing 200 mM imidazole, and the eluted protein was collected. Finally, using the 20-fold molar excess of EZ-LinkTM Sulfo-NHS-LC-LC-Biotin for BAM complex, and incubate reaction on ice for 2 hours. After the protein labeling is completed, dialysis is used to purify the labeled protein to remove the remaining unreacted and hydrolyzed biotin reagents. […]
The mobile phase was 0.1% TFA aqueous solution / acetonitrile containing 0.1%
TFA. The purified macrocyclic peptides and fluorinated macrocyclic peptides were confirmed by electrospray ionization mass spectrometry (ESI-MS).
Binding kinetics analysis by SPR
The binding kinetics between the selected peptides and EphA2 were tested by SPR using a Biacore T200 instrument (GE Healthcare) at 25 °C. In this study, the running buffer was HBS-EP+ buffer (10 mM HEPES-KOH (pH 7.4), 150 mM NaCl, 50 μM EDTA, 0.05% Tween 20) containing 0.1% DMSO. Biotin capture kit (GE Healthcare) was used to fix human EphA2 on the surface of Biacore CAP chip with a density of 1050 RU. Five different concentrations of peptides were injected at the flow rate of 30 μL/min, and their kinetic constants were determined. The binding kinetic was quantified by single cycle kinetic method. Finally, the binding sensorgrams was analyzed by Biacore evaluation software, and the standard 1:1 model was used for fitting.
The binding kinetics between the selected peptides and BAM complex were tested by SPR using […]
a Biacore T200 instrument (GE Healthcare) at 25 °C. In this study, the running buffer was HBS-EP+ […]
(§1) 0.1% DMSO. The Series S Sensor Chip CM5 was used to fix BAM complex on the surface of Biacore CM5 chip with a density of 9500 RU. The binding mode was multi-cycle kinetics (one sample concentration one cycle). Finally, the binding sensorgrams was analyzed by Biacore evaluation software, and the standard 1:1 model was used for fitting.
(§2) Preliminary evaluation of the antibacterial activity of macrocyclic peptides against E. coli […]
(§3) Remove the previously preserved E. coli W3110 cells from the -80 °C refrigerator, scrape a little, inoculate it into 1 mL LB liquid medium, and culture overnight in 37°C shaker. The strain was […]

[2] = system: mouse red blood cells; assay type: cell-based
Procedure: as §1, with “a Biacore T200 instrument (GE Healthcare) at 25 °C. In this study, the running buffer was HBS-EP+ buffer (10 mM HEPES-KOH (pH 7.4), 150 mM NaCl, 50 μM EDTA, 0.05% Tween 20) containing 0.1%” for “0.1%”
as §2
as §3, with “was inoculated into fresh LB liquid medium according to the inoculation ratio of 1:100 and incubated at 37℃ until the OD600 reached about 0.47~0.53.” for “was”
Finally, the plate was scanned and counted. […]
the samples were centrifuged at 1000 rpm for 10 min，and take pictures of the pellet after centrifugation. […] The absorbance of the supernatant at the wavelength of 545 nm was measured by microplate reader, and the percentage of hemolysis of each […]

T1 sequence (P0A903 25-344): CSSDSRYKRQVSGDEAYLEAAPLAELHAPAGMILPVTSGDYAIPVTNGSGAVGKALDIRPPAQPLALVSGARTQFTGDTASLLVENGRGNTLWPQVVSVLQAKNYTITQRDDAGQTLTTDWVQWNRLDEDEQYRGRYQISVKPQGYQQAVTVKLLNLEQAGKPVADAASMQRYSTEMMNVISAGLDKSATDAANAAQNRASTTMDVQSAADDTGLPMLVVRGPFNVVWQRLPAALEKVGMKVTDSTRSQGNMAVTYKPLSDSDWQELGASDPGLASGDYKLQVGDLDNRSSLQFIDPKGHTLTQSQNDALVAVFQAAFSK
T1 sequence (P0AC02 20-245, further chain): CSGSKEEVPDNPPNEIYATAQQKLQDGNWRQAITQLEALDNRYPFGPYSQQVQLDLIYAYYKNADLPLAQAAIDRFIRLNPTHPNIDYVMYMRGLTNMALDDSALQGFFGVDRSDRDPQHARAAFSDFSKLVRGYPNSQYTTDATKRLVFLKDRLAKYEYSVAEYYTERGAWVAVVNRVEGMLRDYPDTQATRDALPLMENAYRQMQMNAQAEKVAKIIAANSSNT
T1 sequence (P0A937 20-113, further chain): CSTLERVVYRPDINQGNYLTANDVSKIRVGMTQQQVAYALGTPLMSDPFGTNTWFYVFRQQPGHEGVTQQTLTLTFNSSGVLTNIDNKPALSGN
T1 sequence (P77774 20-392, further chain): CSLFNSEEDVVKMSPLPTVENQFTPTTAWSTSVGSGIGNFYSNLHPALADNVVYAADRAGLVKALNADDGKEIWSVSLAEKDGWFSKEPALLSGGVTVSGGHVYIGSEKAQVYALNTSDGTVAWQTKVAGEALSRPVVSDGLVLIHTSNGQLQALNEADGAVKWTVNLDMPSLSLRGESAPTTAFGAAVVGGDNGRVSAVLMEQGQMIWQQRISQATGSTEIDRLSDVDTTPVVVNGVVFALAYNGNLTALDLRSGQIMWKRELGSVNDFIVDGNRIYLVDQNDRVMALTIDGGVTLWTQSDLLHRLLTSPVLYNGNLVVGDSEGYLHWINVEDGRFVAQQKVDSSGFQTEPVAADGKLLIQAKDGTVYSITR

Compound	ka for BAM complex [1]	Kd [1]	hemolytic toxicity towards mouse red blood cells [2]
CC[C@H](C)[C@@H]1NC(=O)[C@@H](Cc2ccc(F)cc2)NC(=O)CSC[C@@H](C(=O)NCC(N)=O)NC(=O)[C@H]([C@@H](C)O)NC(=O)[C@H](Cc2c[nH]cn2)NC(=O)[C@H](CC(C)C)NC(=O)[C@H](Cc2ccc(O)cc2)NC(=O)[C@H](CC(N)=O)NC(=O)[C@@H](Cc2ccc(F)cc2)NC(=O)[C@H]([C@@H](C)O)NC(=O)[C@H](CC(C)C)NC(=O)[C@H](CO)NC(=O)[C@H](CCCCN)NC(=O)[C@H](Cc2c[nH]cn2)NC(=O)[C@H](Cc2c[nH]c3ccccc23)NC1=O [BAM-f2] ({CH2CO}-[dPhe(4-F)]IWHKSLT[dPhe(4-F)]NYLHTCG-NH2; thioether N-15)	0.90 ×10 4 M-1s-1	755 nM	low to negligible hemolytic toxicity
CC[C@H](C)[C@@H]1NC(=O)[C@H](Cc2ccccc2)NC(=O)[C@H](Cc2c[nH]cn2)NC(=O)[C@H](CCCCN)NC(=O)[C@@H](Cc2ccc(F)cc2)NC(=O)CSC[C@@H](C(=O)NCC(N)=O)NC(=O)[C@H]([C@@H](C)CC)NC(=O)[C@@H]2CCCN2C(=O)[C@H](CO)NC(=O)[C@H](CCCNC(=N)N)NC(=O)[C@H](Cc2ccc(O)cc2)NC(=O)C[C@@H](c2ccc(F)cc2)NC(=O)[C@H](Cc2ccc(O)cc2)NC1=O [BAM-β3] ({CH2CO}-[dPhe(4-F)]KHFIY[X1]YRSPICG-NH2; thioether N-13)	2.54 ×10 4 M-1s-1	453 nM	low to negligible hemolytic toxicity
